In ChEMBL document CHEMBL3301546, “MMV Malaria Box yeast growth screening”:

Tests used:
Assay type in all cases: functional
Saccharomyces cerevisiae [1] = experiment: (§1) MMV: Growth assays were conducted using the prototrophic S. cerevisiae strain JHY222. Each MMV compound (0.1 mM) was tested in rich media containing dextrose as a carbon source (Yeast Extract, Peptone, Dextrose; YPD). The growth rate in the presence of each MMV compound was calculated as follows: (i) the first 10 OD readings were averaged and subtracted from all OD readings of the corresponding curve to set the baseline of the growth curve to zero, and (ii) the area under the curve (AUC) was then calculated as the sum of all OD readings. […] A relative growth value was calculated as follows: AUC(DRUG) - AUC(DMSO)/AUC(DMSO); where AUC(DMSO) represents growth measured in a DMSO control well that was on the same microtiter plate of the drug-treated culture.
Saccharomyces cerevisiae [2] = experiment: as §1, with “minimal” for “rich”, “ethanol and glycerol” for “dextrose”, “as” for “as a”, “sources” for “source”, “Nitrogen Base, Ethanol, Glycerol; YNBEG).” for “Extract, Peptone, Dextrose; YPD).”
Saccharomyces cerevisiae [3] = experiment: as §1, with “minimal” for “rich”, “Nitrogen Base,” for “Extract, Peptone,”, “YNBD).” for “YPD).”

Row | Structure (SMILES) | Relative Growth (Saccharomyces cerevisiae [1]) | Relative Growth (Saccharomyces cerevisiae [2]) | Relative Growth (Saccharomyces cerevisiae [3])
1 | Cc1cc(Nc2cccc(F)c2)nc(NCc2ccccc2)n1 | -0.0448 | -0.2557 | 0.0258
2 | CN(C)c1ccc(N=Cc2ccc(N3CCOCC3)cc2)cc1 | -0.0781 | 0.068 | 0.0616
3 | COc1cc(C(=O)Nc2ccc(-c3nc4ccccc4[nH]3)cc2)cc(OC)c1OC | -0.1004 | -0.2463 | -0.5664
4 | COc1ccc(-c2cn3c(C(=O)Nc4ccccc4Cl)c(-c4ccccc4)c4c3n2CCCC4)cc1 | -0.0135 | -0.235 | 0.0523
5 | COc1ccccc1NC1=C(N2CCCCC2)C(=O)c2ccccc2C1=O | -0.0045 | 0.1747 | 0.0574
6 | Cl.c1ccc2c(NCCCCCCNc3c4c(nc5ccccc35)CCCC4)c3c(nc2c1)CCCC3 | -0.0331 | -0.2596 | -0.2454
7 | O=C(Nc1cccc(-c2nc3ccccc3[nH]2)c1)c1cccc(NC(=O)c2ccco2)c1 | -0.1741 | -0.4658 | -0.0641
8 | CCOc1cccc(C(=O)Nc2ccc(-c3nc4ccccc4[nH]3)cc2)c1 | -0.0469 | 0.032 | 0.0858
9 | CCOc1ccc(CCNC(=O)c2cccs2)cc1OCC | -1.0059 | -0.3956 | -0.7048
10 | COc1ccc(C(=O)NC(c2ccccc2Cl)c2cc(Cl)c3cccnc3c2O)cc1 (stereo not drawn) | -0.3676 | -1.0144 | -1.0012
11 | O=C(Nc1ccc(Br)cc1)Nc1cccc(Cl)c1 | -1.0018 | -0.1301 | -0.1739
12 | CCC1(C)CC(CCNCc2ccccc2O)(c2ccc(C)cc2)CCO1 (stereo not drawn) | 0.0044 | 0.156 | 0.0584
13 | OC1CCCCC1C1(NC(=S)Nc2ccccc2)CCCCC1 (stereo not drawn) | 0.0255 | 0.0032 | -0.1203
14 | CC(C)OCc1cc(CN2CCN(c3cccc(Cl)c3)CC2)c(O)c2ncccc12 | -1.0115 | -0.1438 | -0.1654
15 | CCCCc1c(CCC)c(=N)c2ccccc2n1C.I | -0.0798 | 0.0643 | 0.0105
16 | CCOC(=O)c1cnc2ccc(OC)cc2c1Nc1ccc(N2CCN(C)CC2)cc1 | -0.0196 | -0.1675 | 0.0562
17 | Cc1cc(C)c2c(c1)OCN(Cc1ccccc1Cl)C2 | -0.0627 | -0.3214 | -0.0636
18 | C=CC12CCN(CC1)C(C(O)c1ccnc3ccc(OC)cc13)C2.Cl (stereo not drawn) | -0.0044 | 0.1178 | 0.1593

Row | Structure (SMILES) | Relative Growth (Saccharomyces cerevisiae [1]) | Relative Growth (Saccharomyces cerevisiae [2]) | Relative Growth (Saccharomyces cerevisiae [3])
19 | COc1cc(C(=O)ON=C(N)Cc2cccc3ccccc23)cc(OC)c1OC | -0.2539 | 0.1784 | 0.2835
20 | COc1cccc(O)c1CN1CCC2(CCCN(Cc3ccc(F)cc3)C2)C1 (stereo not drawn) | 0.0333 | 0.0078 | 0.0312
21 | CCCC(c1nnnn1C1CCCCC1)N1CCN(C(=O)c2ccco2)CC1.Cl (stereo not drawn) | -0.0604 | 0.0167 | 0.0714
22 | CCOC(=O)c1ccc2nc(-c3ccccc3)cc(O)c2c1 | -0.0952 | 0.0616 | 0.1214
23 | COc1ccc(C(=O)NC(c2ccc(Cl)cc2Cl)c2cc(Cl)c3cccnc3c2O)cc1 (stereo not drawn) | 0.0373 | -0.3135 | -0.2517
24 | O=C(Nc1ccc(CN2CCOCC2)cc1)c1ccc(-c2ccc(Br)cc2)o1 | -0.0599 | -0.1653 | -0.3783
25 | N=c1c2ccccc2nnn1-c1cccc(C(F)(F)F)c1 | -0.0528 | -0.1336 | -0.1559
26 | COc1cccc(-c2nn(C)c3sc(C(=O)NCCN4CCN(c5ccccc5F)CC4)cc23)c1 | 0.1401 | 0.0691 | -0.0156
27 | COc1ccc(-c2nc3cc(Cc4ccc5[nH]c(-c6ccc(OC)cc6)nc5c4)ccc3[nH]2)cc1 | -0.0264 | 0.0241 | 0.0862
28 | COc1ccc(C2=C(c3ccc(OC)cc3)C3(c4ccccc4)C(=O)C2(c2ccccc2)C2C(=O)N(c4ccc(C)cc4)C(=O)C23)cc1 (stereo not drawn) | 0.0057 | -0.0687 | -0.018
29 | CCCCCCc1cc2cc(-c3csc(C=Cc4ccccc4)n3)c(=O)oc2cc1O | -0.0646 | -0.0651 | -0.058
30 | COc1ccccc1CNC(=O)CCn1c(=O)[nH]c2ccccc2c1=O | -0.0038 | 0.058 | 0.0763
31 | O=C(NC1CCN(Cc2ccccc2)CC1)c1cc(C(=O)NC2CCN(Cc3ccccc3)CC2)cc(C(=O)NC2CCN(Cc3ccccc3)CC2)c1 | -0.0223 | -0.1727 | 0.0347
32 | CCCN(CCC)CCCNC(=O)c1cc2c(-c3ccc(OC)c(OC)c3)nn(C)c2s1 | -0.0057 | -0.061 | -0.0982
33 | CCOc1ccccc1CN1CCc2nc3cc(C(C)(C)C)nn3c(O)c2C1 | -0.6117 | -0.4424 | -0.2912
34 | Cc1ccc(F)cc1NC(=O)c1cc(Cl)ccc1Nc1ccccc1 | -0.0355 | 0.1227 | -0.0972
35 | OCCNc1nc(Nc2ccc(Cl)c(Cl)c2)nc2ccccc12 | 0.0231 | 0.0602 | -0.1441
36 | CCCc1c(C)nc2ccccc2c1O | -0.0347 | -0.1372 | -0.1078
